Reference: patent publication US6139862A, “Pharmaceutical dipeptide compositions and methods of use thereof” (priority 1998, dated 2000)

Conditions: in vivo
From the text: Due to its simple nature, the dipeptide is rather inexpensive to manufacture.

For `CC[C@H](C)[C@H](N)C(=O)N[C@@H](Cc1c[nH]c2ccccc12)C(=O)O` [Ile-Trp, L-Ile-L-Trp], the “significant side effects from the use of the dipeptide” value was “not found any significant side effects”.
